As a reminder, the IC50 is the midpoint of a concentration-inhibition curve. For orientation: inhibition means the change of the read-out against control, counted positive when it falls.

Data set [1] has as its system PPARγ, C/EBPα and FABP4 mRNA expression. Nature of the data set: RT-PCR of adipocyte marker genes in 3T3-L1 cells. Format: cell-based, Murine. Conditions: for effect on AEA-induced adipocyte marker expression: 3T3-L1, 10 μM compound, co-treatment with AEA 10 μM; for PPARγ, C/EBPα and FABP4 mRNA expression: 3T3-L1, 1, 10, 50 μM for 7 days, n = 3.
The target of data set [2] is T1, Human Recombinant FAAH (fatty acid amide hydrolase) (Homo sapiens, UniProt O00519).
T1 sequence (O00519 1-579): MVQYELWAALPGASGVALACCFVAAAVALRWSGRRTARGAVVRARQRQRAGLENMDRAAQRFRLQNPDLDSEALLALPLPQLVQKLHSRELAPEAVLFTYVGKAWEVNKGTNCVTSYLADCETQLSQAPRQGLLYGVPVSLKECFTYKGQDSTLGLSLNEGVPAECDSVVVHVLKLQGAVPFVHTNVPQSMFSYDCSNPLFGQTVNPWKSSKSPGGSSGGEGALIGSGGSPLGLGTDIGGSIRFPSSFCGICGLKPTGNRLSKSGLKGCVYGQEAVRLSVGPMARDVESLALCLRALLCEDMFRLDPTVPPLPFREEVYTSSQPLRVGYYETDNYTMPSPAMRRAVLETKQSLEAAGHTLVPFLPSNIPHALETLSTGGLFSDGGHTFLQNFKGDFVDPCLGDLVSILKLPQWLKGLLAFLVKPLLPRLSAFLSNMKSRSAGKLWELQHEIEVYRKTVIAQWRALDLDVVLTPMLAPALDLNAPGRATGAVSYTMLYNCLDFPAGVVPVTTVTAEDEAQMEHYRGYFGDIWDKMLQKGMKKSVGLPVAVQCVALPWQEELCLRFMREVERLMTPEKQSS
Nature of the data set: FAAH inhibition, fluorimetric assay with OMP substrate, recombinant enzyme. The format is biochemical. The conditions noted are these: for activity / potency towards FAAH (in words): recombinant FAAH.

Data set [3] concerns 3T3-L1 cells. Nature of the data set: 3T3-L1 adipocyte differentiation, Oil Red O staining of lipid accumulation. The conditions noted are these: for effect on AEA-mediated adipocyte differentiation (Oil Red O): 10 μM compound, co-treatment with AEA 10 μM, 7 days; for adipocyte differentiation / lipid accumulation (Oil Red O staining): 1, 10, 50 μM for 7 days. The format is cell-based, Murine.

For data set [4], the target named is T2, Human Recombinant hCE1 (carboxylesterase 1) (Homo sapiens, UniProt P23141).
T2 sequence (P23141 18-567): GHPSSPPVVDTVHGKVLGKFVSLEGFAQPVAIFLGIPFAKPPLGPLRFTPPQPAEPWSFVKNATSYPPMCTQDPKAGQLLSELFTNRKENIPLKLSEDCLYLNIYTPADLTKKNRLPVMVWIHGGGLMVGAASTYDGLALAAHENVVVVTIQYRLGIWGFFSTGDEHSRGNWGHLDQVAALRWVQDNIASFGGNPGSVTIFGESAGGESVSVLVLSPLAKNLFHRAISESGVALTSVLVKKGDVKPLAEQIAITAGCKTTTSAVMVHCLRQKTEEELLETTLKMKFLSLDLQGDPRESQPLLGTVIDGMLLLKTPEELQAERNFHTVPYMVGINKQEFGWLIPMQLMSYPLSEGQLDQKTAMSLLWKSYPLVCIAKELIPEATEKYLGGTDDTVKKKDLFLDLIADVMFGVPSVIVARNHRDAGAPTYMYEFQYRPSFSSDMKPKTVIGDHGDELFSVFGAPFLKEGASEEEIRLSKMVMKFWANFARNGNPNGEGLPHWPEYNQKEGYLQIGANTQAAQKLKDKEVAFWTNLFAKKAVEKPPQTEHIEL
Nature of the data set: Esterase inhibition, fluorimetric assay with CMNA substrate. Format: biochemical.

Data set [5] concerns the target T3, Human Recombinant hCE2 (carboxylesterase 2) (Homo sapiens, UniProt O00748).
T3 sequence (O00748 27-559): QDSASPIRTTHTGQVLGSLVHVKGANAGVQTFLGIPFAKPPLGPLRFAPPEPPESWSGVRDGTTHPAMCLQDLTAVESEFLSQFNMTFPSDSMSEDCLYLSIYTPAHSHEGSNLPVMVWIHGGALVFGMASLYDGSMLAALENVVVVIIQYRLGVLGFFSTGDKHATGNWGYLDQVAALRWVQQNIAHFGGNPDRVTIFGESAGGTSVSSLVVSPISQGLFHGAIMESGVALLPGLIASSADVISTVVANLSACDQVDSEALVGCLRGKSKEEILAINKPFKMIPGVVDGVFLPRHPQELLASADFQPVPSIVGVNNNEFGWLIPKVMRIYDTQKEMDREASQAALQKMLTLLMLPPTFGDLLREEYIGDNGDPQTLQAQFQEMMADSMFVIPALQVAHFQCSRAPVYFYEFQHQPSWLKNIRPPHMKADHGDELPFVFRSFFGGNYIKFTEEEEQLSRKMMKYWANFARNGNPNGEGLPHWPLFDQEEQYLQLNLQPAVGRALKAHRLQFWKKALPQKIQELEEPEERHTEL
Described as above. The format is biochemical.

For data set [6], the target named is T4, Human Recombinant AADAC (arylacetamide deacetylase) (Homo sapiens, UniProt P22760).
T4 sequence (P22760 1-399): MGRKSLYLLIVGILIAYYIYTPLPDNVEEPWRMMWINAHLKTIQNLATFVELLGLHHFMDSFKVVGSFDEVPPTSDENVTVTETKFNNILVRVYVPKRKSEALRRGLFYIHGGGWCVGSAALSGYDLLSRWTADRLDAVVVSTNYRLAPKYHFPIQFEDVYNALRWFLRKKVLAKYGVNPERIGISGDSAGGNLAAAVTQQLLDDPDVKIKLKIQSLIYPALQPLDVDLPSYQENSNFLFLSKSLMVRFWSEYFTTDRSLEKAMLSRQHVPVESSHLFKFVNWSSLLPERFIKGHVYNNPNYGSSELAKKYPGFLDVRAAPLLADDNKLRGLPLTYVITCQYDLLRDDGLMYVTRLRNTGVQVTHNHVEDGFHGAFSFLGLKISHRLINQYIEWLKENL
The description is as above. The format is biochemical.

The conditions of data set [7]: human exposure; ref Calafat et al., 2010; Tefre de Renzy-Martin et al., 2014; cited from earlier work.
Data set [8] deals with T5, Mouse Brain Microsomes (FAAH) (Mus musculus, UniProt O08914).
T5 sequence (O08914 1-579): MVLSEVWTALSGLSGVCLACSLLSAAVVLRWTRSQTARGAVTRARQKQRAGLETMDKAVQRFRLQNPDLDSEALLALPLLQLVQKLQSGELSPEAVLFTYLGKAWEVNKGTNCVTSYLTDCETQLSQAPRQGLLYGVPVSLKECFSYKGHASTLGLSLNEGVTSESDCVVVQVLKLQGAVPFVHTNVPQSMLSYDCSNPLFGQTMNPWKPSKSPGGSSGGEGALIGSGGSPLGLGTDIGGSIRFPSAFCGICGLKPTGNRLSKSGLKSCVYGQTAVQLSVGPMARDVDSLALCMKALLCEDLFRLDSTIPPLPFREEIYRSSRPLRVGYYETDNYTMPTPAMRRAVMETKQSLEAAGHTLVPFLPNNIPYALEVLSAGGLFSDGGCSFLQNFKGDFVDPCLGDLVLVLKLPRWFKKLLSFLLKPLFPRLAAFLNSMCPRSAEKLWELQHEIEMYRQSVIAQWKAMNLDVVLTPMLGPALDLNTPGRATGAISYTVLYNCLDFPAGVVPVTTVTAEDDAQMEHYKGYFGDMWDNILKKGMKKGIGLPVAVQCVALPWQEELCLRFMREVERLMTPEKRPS
Nature of the data set: FAAH inhibition in brain microsomes, OMP hydrolysis.

Data set [9] addresses T6, Rat Brain Microsomes (FAAH) (Rattus norvegicus, UniProt P97612).
T6 sequence (P97612 1-579): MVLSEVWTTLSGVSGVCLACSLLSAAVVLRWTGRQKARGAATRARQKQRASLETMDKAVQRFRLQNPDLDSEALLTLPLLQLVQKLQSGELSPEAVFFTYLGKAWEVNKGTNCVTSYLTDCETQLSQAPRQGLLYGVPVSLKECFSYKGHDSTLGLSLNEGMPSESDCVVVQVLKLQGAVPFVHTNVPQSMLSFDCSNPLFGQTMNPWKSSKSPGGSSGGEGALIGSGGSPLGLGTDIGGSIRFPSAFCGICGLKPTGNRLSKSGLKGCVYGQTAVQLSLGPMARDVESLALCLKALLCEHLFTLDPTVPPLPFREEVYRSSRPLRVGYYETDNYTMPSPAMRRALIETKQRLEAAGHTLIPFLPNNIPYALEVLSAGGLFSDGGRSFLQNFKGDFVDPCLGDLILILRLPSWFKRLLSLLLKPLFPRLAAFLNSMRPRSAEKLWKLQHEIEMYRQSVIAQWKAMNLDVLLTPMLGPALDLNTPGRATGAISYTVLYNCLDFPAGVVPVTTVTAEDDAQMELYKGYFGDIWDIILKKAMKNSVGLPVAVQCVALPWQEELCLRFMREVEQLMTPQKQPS
Described as above.

Entries after “also recorded” stand apart in the source; their conditions may differ. Where only a bound is given, the exact number is not on record here.

In the case of `CCCCC/C=C\C/C=C\C/C=C\C/C=C\CCCC(=O)NCCO` [AEA, arachidonoyl ethanolamide, reference compound], the “expression of markers of differentiation” value in data set [1] (3T3-L1, AEA 10 μM, 7 days) was “increased expression of several markers of differentiation (PPARγ and C/EBPα)”.

Consider `COC(=O)c1ccc(O)cc1` [Methylparaben, methylparaben], for which the “activity / potency towards FAAH (in words)” value in data set [2] was “completely inactive”.

On to `O=C(Nc1ccccc1)N1CCN(Cc2ccc3ccccc3n2)CC1` [PF622, N-phenyl-4-(quinolin-2-ylmethyl)piperazine-1-carboxamide], for which, in [3], the “effect on AEA-mediated adipocyte differentiation (Oil Red O)” value is “do not synergize to increase adipocyte differentiation” and the “adipocyte differentiation / lipid accumulation (Oil Red O staining)” value is listed as “had no effects at any of the doses tested”.

Take `CCCCCCCOC(=O)c1ccc(O)cc1` [Compound 6, heptylparaben]: the “activity / potency towards FAAH (in words)” value in [2] was “no change in potency”.

On to `O=C(OCC1CCCCC1)c1ccc(O)cc1` [Compound 5], for which the “decrease in potency relative to benzylparaben” value in [2] (FAAH IC50, 5 min pre-incubation) is on record as 2 fold.

For `CCCCOC(=O)c1ccc(O)cc1` [Butylparaben, butylparaben], in data set [2] (pre-incubation of enzyme with inhibitor up to 1 h), the “time-dependence of FAAH inhibition” value is “independent on incubation time”. Besides, the IC50 in data set [4] was more than 10000 nM; in data set [5], more than 10000 nM; in data set [6], more than 10000 nM; in data set [8], 1600 nM; in [9] it was 1100 nM. Moreover, the “effect on AEA-mediated adipocyte differentiation (Oil Red O)” value in data set [3] is reported as “do not synergize to increase adipocyte differentiation”. The “adipocyte differentiation / lipid accumulation (Oil Red O staining)” value in data set [3] was “dose-dependently enhanced 3T3-L1 adipocyte differentiation”. The “effect on AEA-induced adipocyte marker expression” value in [1] (7 days) is reported as “not significantly changed”. Moreover, the “PPARγ, C/EBPα and FABP4 mRNA expression” value in [1] is “enhanced PPARγ, C/EBPα and FABP4 mRNA expression”. For the same molecule, in data set [7], the urinary concentrations was 0.1 to 0.5 µM.

As for `O=C(O)c1ccc(O)cc1` [4-HO-benzoate, 4-hydroxybenzoic acid], in [2], the “activity / potency towards FAAH (in words)” value was “completely inactive”.

For the molecule `O=C(OCc1ccccc1)c1ccc([N+](=O)[O-])cc1` [Compound 4], in [2], the “activity / potency towards FAAH (in words)” value is “completely removed potency”.

In the case of `NC(=O)c1cccc(-c2cccc(OC(=O)NC3CCCCC3)c2)c1` [URB597, 3′-carbamoyl-[1,1′-biphenyl]-3-yl cyclohexylcarbamate, reference compound], the half-inhibitory concentration (IC50) in [4] was 2200 nM; in [5], 730 nM; in [6], more than 10000 nM. Further, in [3], the “effect on AEA-mediated adipocyte differentiation (Oil Red O)” value was “do not synergize to increase adipocyte differentiation”. For the same molecule, the “adipocyte differentiation / lipid accumulation (Oil Red O staining)” value in [3] was “only exposure to 10 μM of URB597 resulted in increased lipid accumulation; also recorded: increased differentiation and only at a concentration of 10 μM, not at 50 μM”. In [1] (7 days), the “effect on AEA-induced adipocyte marker expression” value is on record as “not significantly changed”. Besides, the “PPARγ, C/EBPα and FABP4 mRNA expression” value in [1] was “increased PPARγ, C/EBPα and FABP4 mRNA expression”. The OMP hydrolysis remaining entry in data set [8] (50 nM, mouse brain microsomes) was “less than 20%”. The inhibition at 0.05 µM in data set [8] (read-out: inhibition of activity (OMP hydrolysis)) was more than 80%.

Regarding `O=C(OCc1ccccc1)c1ccccc1` [Compound 3], the “activity / potency towards FAAH (in words)” value in data set [2] is “completely removed potency”.

Regarding `COc1ccc(C(=O)OCc2ccccc2)cc1` [Compound 2], the “activity / potency towards FAAH (in words)” value in data set [2] was “completely removed potency”.

Values taken from PMC5096949 (Toxicology letters, 2016).
